Laboratory results as given in patent US8557866B2, “Isomeric mixtures of dinitro-octylphenyl esters and synergistic fungicidal mixtures therefrom” (Dow AgroSciences, LLC., priority 2007, dated 2013).

Columns and labels:
[1] = system: Uncinula necator (UNCINE); test: High volume spray greenhouse test, 1 day protectant, grape powdery mildew; assay type: in vivo, Uncinula necator on grapes
[2] = system: wheat powdery mildew (ERYSGT); test: Synergy test (Colby), 2 day curative glasshouse studies against wheat powdery mildew; assay type: in vivo, Erysiphe graminis f.sp tritici on wheat; conditions: alone, ERYSGT 2 day curative
[3] = system: Puccinia recondita (PUCCRT); test: High volume spray greenhouse test, 1 day protectant, wheat brown rust; assay type: in vivo, Puccinia recondita on wheat
Method: (§1) The composition of Example 1 was evaluated for fungicidal efficacy in a greenhouse on 9 diseases caused by plant pathogenic fungi (TABLE II). The plant cultivars used in this study were Ugni Blanc (grape), Bovowinka (crab apple), HH88 (sugar beet), M-9 (rice) and Yuma (wheat). Broad leaf plants and rice were grown in a soil-less peat-based potting mixture (Metromix), and wheat was grown in a 50/50 mix of mineral soil and Metromix. The wheat was grown at a temperature of 20° C. and all the other plants were grown at 25° C. Apple seeds were soaked in water, incubated for a short time in 200 ppm solution of benlate and washed again with water. The moist seeds were stored in a closed container at 7° C. (45° F.) and washed once a week with water until the radical had emerged 3 mm (approximately 30 days). The seeds were then planted and seedlings with 4-6 leaves were typically ready for inoculation 3 weeks later.
The composition of Example 1 was applied to seedlings at 100, 50, 25, and 12.5 ppm using a high volume spray application. The composition was formulated in water and serial dilutions made and then brought up to volume by adding water solution. Plants were sprayed to run off with 15 mL of solution on a turn-table sprayer with two opposing 4JAUPM air atomization nozzles (Spraying Systems) at a pressure of 138 kPa. Volume of spray solution on a per hectare basis is approximately 4000 L/ha. Plants were inoculated with the pathogens 1 day after application of the composition of Example 1 (1 day protectant test), incubated in a dew chamber for 24 hours with 100 percent relative humidity and then moved to an appropriate environment for disease expression for the duration of the test. Three replicate pots were sprayed for each pathogen/composition combination. Plants were evaluated for percent disease incidence 7-14 days after inoculation and the average percent disease control determined.
(§2) Plants were inoculated with various pathogens 1 day after application of the composition of EXAMPLES 1, 4-5 (protectant tests) and 2 days before application for EXAMPLES 6-7 (curative tests). For all wheat trials, compositions were applied at growth stage 1.2, when the second leaf was expanded to ½ of its final size (12 days after seeds were first watered). Information on the growth stages of other plant species at the time composition application and on the propagation and inoculation procedures associated with each pathogen is given below.
(§3) PUCCRT: Spores of the obligate pathogen PUCCRT were collected from infected plants with a vacuum apparatus and stored at 4° C. Approximately 0.1 g of fresh spores (stored at 4° C. for less than 30 days) was mixed with several drops of Tween 20. The thick spore paste was diluted to 100 ml with water and sprayed to run-off on wheat seed seedlings. Plants inoculated with PUCCRT were kept in a 20° C. dew chamber overnight and then transferred to a 20° C. growth chamber where symptoms developed in 8-9 days.

[4] = system: Venturia inaequalis (VENTIN); test: High volume spray greenhouse test, 1 day protectant, apple scab; assay type: in vivo, Venturia inaequalis on apple
[5] = system: Erysiphe graminis f.sp tritici (ERYSGT); test: High volume spray greenhouse test, 1 day protectant, wheat powdery mildew; assay type: in vivo, Erysiphe graminis f.sp tritici on wheat
Method: as §1
(§4) The composition of Example 1 was applied to seedlings at 100, 50, 25, and 12.5 ppm using a high volume spray application. The composition was formulated in water and serial dilutions made and then brought up to volume by adding water solution. […] Plants were evaluated for percent disease incidence 7-14 days after inoculation and the average percent disease control determined. […]

[6] = system: wheat brown rust (PUCCRT); test: Synergy test (Colby), 1 day protectant glasshouse studies against wheat brown rust; assay type: in vivo, Puccinia recondita on wheat; conditions: alone, PUCCRT 1 day protectant
From the text: as §2, §3
A synergistic effect exists whenever the action of an active ingredient combination is greater than the sum of the action of the individual components.
The action to be expected E for a given active ingredient combination obeys the so-called COLBY formula and can be calculated as follows (COLBY, S. R. “Calculating synergistic and antagonistic responses of herbicide combination”. Weeds, Vol. 15, pages 20-22; 1967)
X=percent action by active ingredient I using p ppm of active ingredient
Y=percent action by active ingredient II using q ppm of active ingredient
According to Colby the expected additive action of active ingredients I+II using p+q ppm of active ingredients is E=X+Y−(X*Y)/100
If the action actual observed (O) is greater than the expected action (E), then the action of the combination is super additive, that is, there is a synergistic effect.
Protectant activity of combinations against wheat brown rust (PUCCRT).
1 day protectant glasshouse studies.

[7] = system: Erysiphe cichoracearum (ERYSCI); test: High volume spray greenhouse test, 1 day protectant, cucumber powdery mildew; assay type: in vivo, Erysiphe cichoracearum on cucumbers; conditions: rate 200 ppm
Method: as §1, §4

PYRIOR = assay type: in vivo, PYRIOR on rice; conditions: rate 200 ppm, high volume test

CO/C=C(/C(=O)OC)c1ccccc1Oc1cc(Oc2ccccc2C#N)ncn1 [Azoxystrobin, azoxystrobin]
Percent Disease Control UNCINE ([1]; rate 25 ppm): *** (*** is 80-100 percent control of disease)
Observed Percent CONTROL ([2]; 6.25 ppm): 13.00%
Observed Percent CONTROL ([2]; 12.50 ppm): 15.00%
Observed Percent CONTROL ([2]; 25 ppm): 15%
Observed Percent CONTROL ([2]; 75 ppm): 52%
Observed Percent CONTROL ([2]; 100 ppm): 79%

C/C=C/C(=O)Oc1c(C(C)CCCCCC)cc([N+](=O)[O-])cc1[N+](=O)[O-] (centres unmarked) [Ex. 1, 2,4-dinitro-6-(1-methylheptyl)phenyl crotonate]
Percent disease control ([3]; PUCCRT, rate 200 ppm, high volume test): *** (*** is 80-100 percent control of disease)
Percent Disease Control PUCCRT ([3]; rate 12.5 ppm): * (* is 0-49 percent control of disease)
Percent Disease Control PUCCRT ([3]; rate 25 ppm): * (* is 0-49 percent control of disease)
Percent Disease Control PUCCRT ([3]; rate 50 ppm): ** (** is 50-79 percent control of disease)
Percent Disease Control PUCCRT ([3]; rate 100 ppm): *** (*** is 80-100 percent control of disease)
Percent Disease Control UNCINE ([1]; rate 12.5 ppm): *** (*** is 80-100 percent control of disease)
Percent Disease Control UNCINE ([1]; rate 25 ppm): *** (*** is 80-100 percent control of disease)
Percent Disease Control UNCINE ([1]; rate 50 ppm): *** (*** is 80-100 percent control of disease)
Percent Disease Control UNCINE ([1]; rate 100 ppm): *** (*** is 80-100 percent control of disease)
Percent Disease Control VENTIN ([4]; rate 12.5 ppm): ** (** is 50-79 percent control of disease)
Percent Disease Control VENTIN ([4]; rate 25 ppm): ** (** is 50-79 percent control of disease)
Percent Disease Control VENTIN ([4]; rate 50 ppm): ** (** is 50-79 percent control of disease)
Percent Disease Control VENTIN ([4]; rate 100 ppm): *** (*** is 80-100 percent control of disease)
Percent Disease Control ERYSGT ([5]; rate 50 ppm): *** (*** is 80-100 percent control of disease)
Percent Disease Control ERYSGT ([5]; rate 100 ppm): *** (*** is 80-100 percent control of disease)
Observed Percent CONTROL ([6]; 12.50 ppm): 0.00%
Observed Percent CONTROL ([6]; 25.00 ppm): 11.76%
Observed Percent CONTROL ([6]; 50.00 ppm): 33.33%
Observed Percent CONTROL ([6]; 75.00 ppm): 68.63%
Observed Percent CONTROL ([2]; 75 ppm): 23.00%
Percent disease control [7]: ** (** is 50-79 percent control of disease)
Percent disease control (PYRIOR): *** (*** is 80-100 percent control of disease)

OC(c1ccc(Cl)cc1)(c1cncnc1)c1ccccc1Cl (centres unmarked) [Fenarimol, fenarimol, reference compound]
Percent Disease Control VENTIN ([4]; rate 25 ppm): *** (*** is 80-100 percent control of disease)

CCCCC(C#N)(Cn1cncn1)c1ccc(Cl)cc1 (centres unmarked) [Myclobutanil, myclobutanil]
Observed Percent CONTROL ([6]; 3.13 ppm): 0.00%
Observed Percent CONTROL ([6]; 6.25 ppm): 27.45%
Observed Percent CONTROL ([6]; 12.50 ppm): 74.51%
Observed Percent CONTROL ([6]; 18.75 ppm): 84.31%

CCCN(CC)CC1COC2(CCC(C(C)(C)C)CC2)O1 (centres unmarked) [Spiroxamine, spiroxamine]
Observed Percent CONTROL ([2]; 12.50 ppm): 15.00%

mancozeb
Observed Percent CONTROL ([6]; 25.00 ppm): 0.00%
Observed Percent CONTROL ([6]; 50.00 ppm): 5.88%
Observed Percent CONTROL ([6]; 100.00 ppm): 58.82%
Observed Percent CONTROL ([6]; 200.00 ppm): 88.24%
